Consider three compounds from publication PMC7427800 (Scientific Reports, 2020).

In data set [1] the target is T1, human KOR (Homo sapiens, UniProt P41145).
T1 construct: host or cells: CHO (CHO-hKOR), cell membranes
In kind it is binding.

Data set [2] addresses T2, human DOR (Homo sapiens, UniProt P41143).
T2 construct: host or cells: CHO (CHO-hDOR), cell membranes
Type of data set: binding.

Data set [3] concerns the target T3, human MOR (Homo sapiens, UniProt P35372). Put plainly: biochemical. Type of data set: binding. On the set-up: host or cells: CHO (CHO-hMOR), cell membranes.
Data set [4] deals with T3, human MOR. In kind it is cell-based. Set-up: host or cells: U2OS (PathHunter U2OS-hMOR-βarrestin2). To be noted: PathHunter, U2OS-hMOR.
Data set [5] concerns acetic acid-induced writhing. The data set is described as follows: acetic acid-induced writhing test. Type of data set: in vivo, mice. The conditions noted are these: for reduction in the number of writhes / times less effective than morphine (0.5 mg/kg) at equianalgesic doses: mice; for reduction in the number of writhes: 30 min after administration; for antiwrithing response after naltrexone pretreatment: naltrexone 1 mg/kg s.c. 10 min before agonist; for times less effective than morphine (0.5 mg/kg) at equianalgesic doses: writhing assay, s.c. On the procedure: Male CD1 mice (30–35 g, 7–8 weeks old) were obtained from the Center of Biomodels and Experimental Medicine (CBEM) (Innsbruck, Austria). Mice were group-housed in a temperature-controlled room with a 12 h light/dark cycle and with free access to food and water. All animal studies were conducted in accordance with ethical guidelines and animal welfare standards according to Austrian regulations for animal research and were approved by the Committee of Animal Care of the Austrian Federal Ministry of Science and Research. Test compounds or vehicle were administered by s.c. route in a volume of 10 µL/1 g of body weight.
Writhing was induced in mice by intraperitoneal (i.p.) injection of a 0.6% acetic acid aqueous solution[26]. Drugs or control (vehicle) were s.c. administered, and after 25 min (5 min prior to testing), each animal received i.p. acetic acid solution. Each mouse was placed in individual transparent Plexiglas chambers, and the number of writhes was counted during a 10 min observation period. […] For the antagonism study, naltrexone (1 mg/kg) was s.c. administered 10 min before the opioid agonist, and writhing as assessed as described above. Each experimental group included five to six animals.
For orientation: An intraperitoneal irritant provokes the stretching counted in writhing tests.

The conditions of data set [6]: rat, in vivo; cited from earlier work.
The test system of data set [7] is dopamine D1 receptor. On the set-up: method as in PMID 18830156, PMID 30308941. To be noted: cell-based functional assays; cited from earlier work.
Data set [8] addresses T3, human MOR. The data set is described as follows: biochemical. Type of data set: biochemical. Set-up: host or cells: CHO (CHO-hMOR), cell membranes. The conditions noted are these: for agonist character at the MOR: CHO-hMOR; for G protein activation %stim: percentage stimulation relative to DAMGO.

Where two headings read alike, the source gives them in different places.

T3 sequence (P35372 whole entry): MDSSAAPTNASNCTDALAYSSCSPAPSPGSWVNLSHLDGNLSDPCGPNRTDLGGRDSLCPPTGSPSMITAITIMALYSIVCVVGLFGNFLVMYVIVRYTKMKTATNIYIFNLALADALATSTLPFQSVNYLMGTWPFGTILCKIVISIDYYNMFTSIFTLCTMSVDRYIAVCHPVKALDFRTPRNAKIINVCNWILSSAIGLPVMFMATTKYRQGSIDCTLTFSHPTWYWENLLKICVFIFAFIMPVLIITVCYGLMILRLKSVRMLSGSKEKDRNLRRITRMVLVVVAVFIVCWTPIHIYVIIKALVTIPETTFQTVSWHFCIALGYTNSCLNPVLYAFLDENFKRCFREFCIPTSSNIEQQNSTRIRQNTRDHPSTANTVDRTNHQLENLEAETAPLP
T1 sequence (P41145 whole entry): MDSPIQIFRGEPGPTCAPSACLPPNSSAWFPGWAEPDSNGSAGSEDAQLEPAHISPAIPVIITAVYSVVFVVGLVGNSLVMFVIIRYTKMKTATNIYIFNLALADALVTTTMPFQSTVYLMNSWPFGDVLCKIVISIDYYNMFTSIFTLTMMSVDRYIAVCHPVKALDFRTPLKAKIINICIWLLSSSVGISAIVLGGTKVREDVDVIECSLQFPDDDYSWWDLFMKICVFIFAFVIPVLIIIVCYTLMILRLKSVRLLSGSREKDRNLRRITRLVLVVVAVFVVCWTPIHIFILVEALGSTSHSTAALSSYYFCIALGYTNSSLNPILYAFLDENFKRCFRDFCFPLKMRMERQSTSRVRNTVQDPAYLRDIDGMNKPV
T2 sequence (P41143 whole entry): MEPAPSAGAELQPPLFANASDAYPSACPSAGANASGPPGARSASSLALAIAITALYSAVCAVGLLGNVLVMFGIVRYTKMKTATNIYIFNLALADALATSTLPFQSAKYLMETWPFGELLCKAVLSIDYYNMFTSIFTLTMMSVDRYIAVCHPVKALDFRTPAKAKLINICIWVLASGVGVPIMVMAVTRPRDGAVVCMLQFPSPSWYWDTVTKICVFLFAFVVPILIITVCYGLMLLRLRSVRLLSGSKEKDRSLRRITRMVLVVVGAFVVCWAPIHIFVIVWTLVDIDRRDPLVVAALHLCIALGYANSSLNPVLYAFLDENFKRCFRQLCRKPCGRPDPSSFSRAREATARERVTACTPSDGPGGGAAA

For the compound `COc1cc2c(cc1OC)C1C(C)c3ccc(OC)c(OC)c3CN1CC2` (centres unmarked) [Corydaline (2), corydaline], where the note is “mouse, in vivo”, the “alterations in general behavior (locomotor activity, sedation)” value was “no major alterations in locomotor activity and no sedation”. For the same compound, the “specific binding to the human KOR” value in data set [1] was “did not specifically bind”. Besides, the “specific binding to the human DOR” value in data set [2] is listed as “did not specifically bind”. The affinity in data set [3], expressed as Ki, was 1230 ± 290 nM. Also, the “β-arrestin2 recruitment upon activation of the MOR” value in data set [4] is given as “failed to induce β-arrestin2 recruitment”. Moreover, in data set [5] (10 mg/kg s.c.), the “reduction in the number of writhes” value stood at 59%. In data set [5], the “antiwrithing response after naltrexone pretreatment” value is given as “antagonized” and the “times less effective than morphine (0.5 mg/kg) at equianalgesic doses” value was about 20 times. Further, the “blood–brain barrier crossing” value in [6] is “can effectively cross the blood–brain barrier”. For the same compound, in data set [7], the “activity at the dopamine D1 receptor” value is “antagonist activity”. This compound had an EC50 in data set [8] of 1500 ± 440 nM. Further, in data set [8] ([35S]GTPγS binding), the “agonist character at the MOR” value is “full agonists” and the “G protein activation %stim” value is given as 104 ± 6%.

With `COc1cc2c3c(c1O)-c1c(ccc(OC)c1OC)C[C@@H]3N(C)CC2` [Corydine (1), corydine], where the note is “mice, s.c., tested doses (5 mg/kg corydine, 10 mg/kg corydaline)”, the “alterations in general behavior (locomotor activity, sedation)” value was “no major alterations in locomotor activity and no sedation”. The “specific binding to the human KOR” value in data set [1] is “did not specifically bind”. In [2], the “specific binding to the human DOR” value is reported as “did not specifically bind”. Further, in data set [3], affinity was put at a Ki of 2820 ± 610 nM. Also, in data set [4], the “β-arrestin2 recruitment upon activation of the MOR” value is recorded as “failed to induce β-arrestin2 recruitment”. Moreover, the “reduction in the number of writhes” value in [5] (5 mg/kg s.c.) came to 51%. Also, in data set [5], the “antiwrithing response after naltrexone pretreatment” value is reported as “antagonized” and the “times less effective than morphine (0.5 mg/kg) at equianalgesic doses” value is reported as “ca. 10 times”. Besides, in data set [8], a half-maximal response (EC50) required 510 ± 110 nM. In data set [8] ([35S]GTPγS binding), the “agonist potency, times greater than corydaline (2)” value is “about 3 times”; the “agonist potency, times less potent than DAMGO” value came to 34 times; the “agonist character at the MOR” value is given as “full agonists”; the “G protein activation %stim” value stood at 102 ± 6%.

For `C[C@@H](NC(=O)[C@@H](N)Cc1ccc(O)cc1)C(=O)NCC(=O)N(C)[C@@H](Cc1ccccc1)C(=O)NCCO` [DAMGO, reference compound], the “β-arrestin2 recruitment upon activation of the MOR” value in data set [4] was “effectively recruited β-arrestin2”. The compound further yielded a β-arrestin2 recruitment %stim in [4] (relative to DAMGO, – denotes no measurable activity) of 100%. Further, the “G protein activation %stim” value in [8] ([35S]GTPγS binding) amounted to 100%.

The term Ki denotes a measure of affinity in units of concentration, obtained from inhibition or displacement. Higher therefore signals a looser hold on the target. One may read the EC50 as the concentration that produces a half-maximal response. Low values mean greater potency, high ones weaker potency.
